Structures can show the parent of a compound that is named as a salt.
Tests used:
Adrenergic β2 [1] = target: T1, Adrenergic β2 (Homo sapiens, UniProt P07550); test: Alternative Adrenergic β2 Mediated cAMP Production in H292 cells (60 minutes incubation with test compound); assay type: cell-based; settings: for Intrinsic Activity: fraction relative to the maximum activity determined for formoterol, 60 minutes incubation; for EC50: rolipram 300 μM, test compounds incubated 60 minutes at room temperature
T1 construct: endogenous in cells; host or cells: H292 cells
Protocol: H292 cells were grown in 225 cm2 flasks incubator at 37° C., 5% CO2 in RPMI medium containing, 10% (v/v) FBS (foetal bovine serum) and 2 mM L-glutamine.
Adherent H292 cells were removed from tissue culture flasks by treatment with Accutase™ cell detachment solution for 15 minutes. Flasks were incubated for 15 minutes in a humidified incubator at 37° C., 5% CO2. Detached cells were re-suspended in RPMI media (containing 10% (v/v) FBS and 2 mM L-glutamine) at 0.05×10^6 cells per mL. 5000 cells in 100 μL were added to each well of a tissue-culture-treated 96-well plate and the cells incubated overnight in a humidified incubator at 37° C., 5% CO2. The culture media was removed and cells were washed twice with 100 μL assay buffer and replaced with 50 μL assay buffer (HBSS solution containing 10 mM HEPES pH7.4 and 5 mM glucose). Cells were rested at room temperature for 20 minutes after which time 25 μL of rolipram (1.2 mM made up in assay buffer containing 2.4% (v/v) dimethylsulphoxide) was added. Cells were incubated with rolipram for 10 minutes after which time test compounds were added and the cells were incubated for 60 minutes at room temperature. The final rolipram concentration in the assay was 300 μM and final vehicle concentration was 1.6% (v/v) dimethylsulphoxide. The reaction was stopped by removing supernatants, washing once with 100 μL assay buffer and replacing with 50 μL lysis buffer. The cell monolayer was frozen at −80° C. for 30 minutes (or overnight).
The concentration of cAMP (cyclic adenosine monophosphate) in the cell lysate was determined using AlphaScreen™ methodology. The frozen cell plate was thawed for 20 minutes on a plate shaker then 10 μL of the cell lysate was transferred to a 96-well white plate. 40 μL of mixed AlphaScreen™ detection beads pre-incubated with biotinylated cAMP, was added to each well and the plate incubated at room temperature for 10 hours in the dark. The AlphaScreen™ signal was measured using an EnVision spectrophotometer (Perkin-Elmer Inc.) with the recommended manufacturer's settings. cAMP concentrations were determined by reference to a calibration curve determined in the same experiment using standard cAMP concentrations. Concentration response curves for agonists were constructed and data was fitted to a four parameter logistic equation to determine both the pEC50 and Intrinsic Activity. Intrinsic Activity was expressed as a fraction relative to the maximum activity determined for formoterol in each experiment.

Adrenergic β2 [2] = target: T1, Adrenergic β2; test: cAMP production in H292 cells, AlphaScreen cAMP detection (10 minutes incubation with test compound); assay type: cell-based; settings: for Intrinsic Activity: fraction relative to the maximum activity determined for formoterol, 10 minutes incubation; for EC50: rolipram 300 μM, test compounds incubated 10 minutes at room temperature
Protocol: H292 cells were grown in RPMI (Roswell Park Memorial Institute) medium containing, 10% (v/v) FBS (foetal bovine serum) and 2 mM L-glutamine. Cells were grown in 225 cm2 flasks containing 25 mL media in a humidified incubator at 37° C., 5% CO2. Cells were harvested from the flask and passaged at a 1 in 10 dilution once per week.
The media from flasks containing H292 cells was removed, rinsed with 10 mL PBS (phosphate buffered saline) and replaced with 10 mL Accutase™ cell detachment solution. Flasks were incubated for 15 minutes in a humidified incubator at 37° C., 5% CO2. The cell suspension was counted and the cells re-suspended in RPMI media (containing 10% (v/v) FBS and 2 mM L-glutamine) at 0.05×10^6 cells per mL. 5000 cells in 100 μL were added to each well of a tissue-culture-treated 96-well plate and the cells incubated overnight in a humidified incubator at 37° C., 5% CO2. The culture media was removed, washed twice with 100 μL assay buffer and replaced with 50 μL assay buffer. Cells were rested at room temperature for 20 minutes after which time 25 μL of rolipram (1.2 mM made up in assay buffer containing 2.4% (v/v) dimethylsulphoxide) was added. Cells were incubated with rolipram for 10 minutes after which time test compounds (made up as ×4 concentrated stocks in assay buffer containing 4% (v/v) dimethylsulphoxide) were added and the cells were incubated for 10 minutes at room temperature. Final rolipram concentration in the assay was 300 μM and final vehicle concentration was 1.6% (v/v) dimethylsulphoxide. The reaction was stopped by removing supernatants, washing once with 100 μL assay buffer and replacing with 50 μL lysis buffer. The cell monolayer was frozen at −80° C. for 30 minutes (or overnight).
The concentration of cAMP (cyclic adenosine monophosphate) in the cell lysate was determined using the AlphaScreen™ methodology. The frozen cell plate was thawed for 20 minutes on a plate shaker then 10 μL of the cell lysate was transferred to a 96-well white plate. 40 μL of mixed AlphaScreen™ detection beads (containing equal volumes of donor beads (pre-incubated with biotinylated cAMP in the dark for 30 minutes) and acceptor beads), was added to each well and the plate incubated at room temperature for 10 hours in the dark. The AlphaScreen™ signal was measured using an EnVision spectrophotometer (Perkin-Elmer Inc.) with the recommended manufacturer's settings. cAMP concentrations were determined by reference to a calibration curve determined in the same experiment using standard cAMP concentrations (made up in lysis buffer in a 96-well tissue-culture-treated plate and frozen/thawed alongside the test samples) and detected using the same protocol. Concentration response curves for agonists were constructed to determine both the pEC50 and Intrinsic Activity. Intrinsic Activity was expressed as a fraction relative to the maximum activity determined for formoterol in each experiment.

T1 sequence (P07550 whole entry): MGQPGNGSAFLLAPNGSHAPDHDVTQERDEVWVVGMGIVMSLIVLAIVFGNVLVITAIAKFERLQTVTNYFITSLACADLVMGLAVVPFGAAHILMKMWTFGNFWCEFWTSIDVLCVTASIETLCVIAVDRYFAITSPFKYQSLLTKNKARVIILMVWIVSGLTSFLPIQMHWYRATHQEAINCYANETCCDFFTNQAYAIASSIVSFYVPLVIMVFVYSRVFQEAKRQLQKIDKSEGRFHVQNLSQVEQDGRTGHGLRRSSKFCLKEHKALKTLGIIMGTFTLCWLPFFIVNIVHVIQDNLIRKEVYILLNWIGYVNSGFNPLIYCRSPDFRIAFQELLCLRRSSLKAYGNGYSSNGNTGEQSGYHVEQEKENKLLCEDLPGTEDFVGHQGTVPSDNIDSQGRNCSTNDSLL

| SMILES | Intrinsic Activity (Adrenergic β2 [1]) | EC50 (Adrenergic β2 [1]) [nM] | Intrinsic Activity (Adrenergic β2 [2]) | EC50 (Adrenergic β2 [2]) [nM] |
| --- | --- | --- | --- | --- |
| O=c1[nH]c2c(O)ccc([C@@H](O)CNCC3CN(CCCOCCc4ccccc4)C3)c2s1 [Example 20, 4-Hydroxy-7-{(1R)-1-hydroxy-2-[({1-[3-(2-phenylethoxy)propyl]azetidin-3-yl}methyl)amino]ethyl}-1,3-benzothiazol-2(3H)-one hydrochloride] | 1 | 0.316 | – | – |
| O=c1ccc2c([C@@H](O)CNCC3(O)CCN(CCOCCc4cccc5c4CCCC5)CC3)ccc(O)c2[nH]1 [Example 74, 8-Hydroxy-5-{(2R)-1-hydroxy-2-[(4-hydroxy-1-{2-[2-(5,6,7,8-tetrahydronaphthalen-1-yl)ethoxy]ethyl}piperidin-4-ylmethyl)amino]ethyl}-1H-quinolin-2-one] | 0.9 | 0.794 | – | – |
| O=c1ccc2c([C@@H](O)CN[C@H]3CC[C@H](NCCOCCc4ccccc4)CC3)ccc(O)c2[nH]1 [Example 2, 8-Hydroxy-5-{(1R)-1-hydroxy-2-[(trans-4-{[2-(2-phenylethoxy)ethyl]amino}cyclohexyl)amino]ethyl}quinolin-2(1H)-one] | – | – | 0.9 | 20 |
| O=C(CCN1CCC(NC[C@H](O)c2ccc(O)c3[nH]c(=O)ccc23)CC1)NCc1cccc(Cl)c1Cl [Example 36, N-(2,3-Dichlorobenzyl)-3-(4-{[(2R)-2-hydroxy-2-(8-hydroxy-2-oxo-1,2-dihydroquinolin-5-yl)ethyl]amino}piperidin-1-yl)propanamide] | – | 3.16 | – | – |
| O=c1ccc2c([C@@H](O)CNCC3(O)CCN(CCOCCc4ccccc4)CC3)ccc(O)c2[nH]1 [Example 5, 8-Hydroxy-5-{(1R)-1-hydroxy-2-[({4-hydroxy-1-[2-(2-phenylethoxy)ethyl]piperidin-4-yl}methyl)amino]ethyl}quinolin-2(1H)-one] | – | – | 0.8 | 2.51 |
| Cc1cccc(Cl)c1CNC(=O)CCN1CCC(NC[C@H](O)c2ccc(O)c3[nH]c(=O)ccc23)CC1 [Example 31, N-(2-Chloro-6-methylbenzyl)-3-(4-{[(2R)-2-hydroxy-2-(8-hydroxy-2-oxo-1,2-dihydroquinolin-5-yl)ethyl]amino}piperidin-1-yl)propanamide] | 0.8 | 5.01 | – | – |
| O=C(CCN1CCC(NC[C@H](O)c2ccc(O)c3[nH]c(=O)ccc23)CC1)NC12CC3CC(CC(C3)C1)C2 [Example 41, N-1-Adamantyl-3-(4-{[(2R)-2-hydroxy-2-(8-hydroxy-2-oxo-1,2-dihydroquinolin-5-yl)ethyl]amino}piperidin-1-yl)propanamide] | 0.8 | 3.98 | – | – |
| O=c1ccc2c([C@@H](O)CNC3CCN(CCCOCCc4ccccc4)CC3)ccc(O)c2[nH]1 [Example 3, 8-Hydroxy-5-[(1R)-1-hydroxy-2-({1-[3-(2-phenylethoxy)propyl]piperidin-4-yl}amino)ethyl]quinolin-2(1H)-one] | – | – | 0.8 | 31.6 |
| O=c1ccc2c([C@@H](O)CNC[C@H]3CCCN(CCOCCc4ccccc4)C3)ccc(O)c2[nH]1 [Example 14, 8-Hydroxy-5-{(1R)-1-hydroxy-2-[({(3R)-1-[2-(2-phenylethoxy)ethyl]piperidin-3-yl}methyl)amino]ethyl}quinolin-2(1H)-one] | – | – | 1.0 | 5.01 |
| O=C(CCN1CCC(NC[C@H](O)c2ccc(O)c3[nH]c(=O)ccc23)CC1)NCc1ccccc1 [Example 6, N-Benzyl-3-(4-{[(2R)-2-hydroxy-2-(8-hydroxy-2-oxo-1,2-dihydroquinolin-5-yl)ethyl]amino}piperidin-1-yl)propanamide] | – | – | 0.8 | 7.94 |
